Reference: patent US7968570B2, “Isoindolone compounds and their use as metabotropic glutamate receptor potentiators” (AstraZeneca AB, priority 2004, dated 2011)
Where two headings read alike, the source gives them in different places.

Biological target: T1, human mGluR2 receptor (Homo sapiens, UniProt Q14416)
T1 construct: expressed in transfected cells
Experiment: [35S]-GTPγS binding assay of mGluR2 receptor activation
Type: biochemical
Outline: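 CHO membranes stably expressing human mGluR2 (30 μg) preincubated 15 min at room temperature with compound (3 nM–300 μM), then 1 μM glutamate, 30 μM GDP, 0.1 nM [35S]-GTPγS, 30 min at 30° C in HEPES/NaCl/MgCl2. Filtration counting; EC50 and Emax relative to maximal glutamate effect by non-linear regression.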

[1] = membranes from CHO cells stably expressing human mGluR2, 1 μM glutamate

T1 sequence (Q14416 19-872): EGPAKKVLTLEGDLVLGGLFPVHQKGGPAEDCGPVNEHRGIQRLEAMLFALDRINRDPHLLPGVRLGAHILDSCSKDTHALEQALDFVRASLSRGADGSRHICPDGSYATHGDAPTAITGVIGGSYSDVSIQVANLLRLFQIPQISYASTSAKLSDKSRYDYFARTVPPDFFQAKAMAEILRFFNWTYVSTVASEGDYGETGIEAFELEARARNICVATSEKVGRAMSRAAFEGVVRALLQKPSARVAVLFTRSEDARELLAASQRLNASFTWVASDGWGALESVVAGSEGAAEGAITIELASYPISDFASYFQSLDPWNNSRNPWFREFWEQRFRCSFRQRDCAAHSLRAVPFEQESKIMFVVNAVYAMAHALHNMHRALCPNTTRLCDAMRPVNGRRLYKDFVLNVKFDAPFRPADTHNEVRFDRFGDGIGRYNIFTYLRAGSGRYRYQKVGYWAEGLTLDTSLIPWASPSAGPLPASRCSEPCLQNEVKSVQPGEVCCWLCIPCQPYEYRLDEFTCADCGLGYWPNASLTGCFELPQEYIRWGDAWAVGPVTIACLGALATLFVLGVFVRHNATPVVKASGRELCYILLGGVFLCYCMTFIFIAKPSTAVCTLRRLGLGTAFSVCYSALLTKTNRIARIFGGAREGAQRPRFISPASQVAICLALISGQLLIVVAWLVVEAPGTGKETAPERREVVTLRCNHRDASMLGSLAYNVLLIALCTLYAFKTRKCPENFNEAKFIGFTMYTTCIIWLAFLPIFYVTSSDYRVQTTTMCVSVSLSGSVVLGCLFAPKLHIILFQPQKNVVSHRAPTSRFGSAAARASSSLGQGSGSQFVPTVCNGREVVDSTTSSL

Compound	EC50 [1] [nM]	EC50 [nM]
Cc1cc(CNCC(C)O)cc2c1C(=O)N(Cc1ccc(OC(F)(F)F)cc1)C2 (centres unmarked) [Example 52, 5-[(2-Hydroxy-propylamino)-methyl]-7-methyl-2-(4-trifluoromethoxy-benzyl)-2,3-dihydro-isoindol-1-one]	7020	
Cc1cc(-c2ccncc2)cc2c1C(=O)N(Cc1ccc(Cl)cc1)C2 [Example 97, 2-(4-chlorobenzyl)-7-methyl-5-pyridin-4-yl-2,3-dihydroisoindol-1-one]	300	
Cc1ccc(CN2Cc3cc(NC4CCN(C(=O)OC(C)(C)C)C4)ccc3C2=O)cc1 (centres unmarked) [Example 110, 3-[2-(4-Methyl-benzyl)-1-oxo-2,3-dihydro-1H-isoindol-5-ylamino]-pyrrolidine-1-carboxylic acid tert-butyl ester]	2520	
COc1cc(C2=CCN(C)CC2)cc2c1C(=O)N(Cc1ccc(OC(F)(F)F)cc1)C2 [Example 90, 7-Methoxy-5-(1-methyl-1,2,3,6-tetrahydro-pyridin-4-yl)-2-(4-trifluoromethoxy-benzyl)-2,3-dihydro-isoindol-1-one]	3820	
O=C1c2c(Cl)cc(-c3cccnc3)cc2CN1Cc1ccc(OC(F)(F)F)cc1 [Example 105, 7-Chloro-5-pyridin-3-yl-2-(4-trifluoromethoxy-benzyl)-2,3-dihydro-isoindol-1-one]	50	
Cc1cc(-c2ccc(CN(C)C)cc2)cc2c1C(=O)N(Cc1ccc(OC(F)(F)F)cc1)C2 [Example 86, 5-(4-Dimethylamino-methyl-phenyl)-7-methyl-2-(4-trifluoromethoxy-benzyl)-2,3-dihydro-isoindol-1-one]	60	

The remaining lines, values ahead:

EC50 [1] [nM]	EC50 [nM]	Compound
	40	O=C1c2c(Cl)cc(CC3CCN(Cc4ccncc4)CC3)cc2CN1Cc1ccc(OC(F)(F)F)cc1 [Example 182]
480		CN1CN(c2ccccc2)C2(CCN(c3ccc4c(c3)CN(Cc3ccc(OC(F)(F)F)cc3)C4=O)CC2)C1=O [Example 151, 3-Methyl-8-[1-oxo-2-(4-trifluoromethoxy-benzyl)-2,3-dihydro-1H-isoindol-5-yl]-1-phenyl-1,3,8-triaza-spiro[4.5]decan-4-one]
700		Cc1cc(N2CCN(Cc3ccncc3)CC2)cc2c1C(=O)N(Cc1ccc(OC(F)(F)F)cc1)C2 [Example 136, 7-Methyl-5-(4-pyridin-4-ylmethyl-piperazin-1-yl)-2-(4-trifluoromethoxy-benzyl)-2,3-dihydro-isoindol-1-one]
	1290	Cc1cc(-c2nnc(CN3CCOCC3)o2)cc2c1C(=O)N(Cc1ccc(OC(F)(F)F)cc1)C2 [Example 176, 7-Methyl-5-(5-morpholin-4-ylmethyl-[1,3,4]oxadiazol-2-yl)-2-(4-trifluorometh-oxy-benzyl)-2,3-dihydro-isoindol-1-one]
	110	Cc1cc(-c2nc(CN3CCOCC3)no2)cc2c1C(=O)N(Cc1ccc(OC(F)(F)F)cc1)C2 [Example 178, 7-Methyl-5-(3-morpholin-4-ylmethyl-[1,2,4]oxadiazol-5-yl)-2-(4-trifluorometh-oxy-benzyl)-2,3-dihydro-isoindol-1-one]
